Data on 12 molecules can be found in patent US6423689B1, “Peptidyl calcium channel blockers” (Warner-Lambert Company, priority 1997, dated 2002).

In experiment [1] the target is T1, N-type Ca2+ channels in IMR-32 cells (Homo sapiens, UniProt Q00975).
T1 construct: host or cells: IMR-32 cells, differentiated with dibutyryl cAMP and bromodeoxyuridine
The experiment can be described thus: Inhibition of N-type calcium flux in IMR-32 cells (Indo-1 fluorescence, nitrendipine present). It is filed as cell-based. As to conditions: for inhibition at 1 µM / inhibition at 10 µM: IMR-32; for IC50: IMR-32 cells, 5 μM nitrendipine, K+ depolarization. Summed up: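 With L-type flux blocked by 5 μM nitrendipine, N-type Ca2+ entry was read as the Indo-1 emission ratio (400/490 nm, excitation 350 nm) at 30° C after KCl depolarization.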

The target of experiment [2] is T2, N-type Ca2+ channels in superior cervical ganglion (SCG) neurons (Rattus norvegicus, UniProt Q02294).
T2 construct: from tissue
As to the kind of experiment: Whole-cell voltage clamp, N-type Ca2+ current in SCG neurons. The class given is cell-based. As to conditions: for IC50: read-out: Inhibition of N-type Ca2+ Current IC50. The procedure: (§1) Electrophysiological techniques were used to measure the effects of experimental compounds on voltage-gated Ca^2+, Na^+ and K^+ channels. […] Sodium and potassium channel currents were measured from acutely dissociated SCG neurons.
(§2) Dissociation of the neurons from the ganglia was accomplished using a 30 to 45 minute treatment in 0.25% trypsin, similar to methods outlined in Higgins, et al. [see Higgins D., et al. “Tissue culture of mammalian autonomic neurons.” In Banker G. and Goslin K. (Eds), Culturing Nerve Cells, Cambridge, Mass., MIT Press (1991)].
(§3) Ca^2+, Na^+ and K^+ channel currents in SCG neurons were measured using conventional single electrode whole-cell voltage-clamp techniques, outlined in Hamill, et al., (see Hamill O.P., et al. “Improved patch-clamp techniques for high resolution current recordings from cells and cell-free membrane patches”. Pflugers Arch. 1981;391:85-100) For Ca^2+ channel experiments, the external bathing solution contained tetraethylammonium chloride (100 mM), choline chloride (52 mM), NaCl (15 mM), HEPES (10 mM), glucose (5.6 mM), CaCl2 (2 mM), and MgCl2 (0.8 mM) pH 7.35 with KOH; with the internal pipette solution containing cesium methane sulfonate (140 mM), EGTA (10 mM), and HEPES (10 mM), supplemented with 5 mM Mg^2+ -ATP on the day of the experiment, pH 7.4 with CsOH. For Na^+ and K^+ channel experiments, the external bathing solution contained NaCl (150 mM), KCl (5 mM), MgCl2 (1.1 mM), CaCl2 (2.6 mM), Na-HEPES (10 mM), and glucose (10 mM), pH 7.4; with the internal pipette solution containing KCl (80 mM), K-gluconate (50 mM), HEPES (10 mM), and EGTA (10 mM), pH 7.4 with KOH. Experimental compounds were diluted into the external solution and applied to the soma of cells by local perfusion from large diameter (20-50 μm) glass micropipettes or from a U-tube applicator.
After obtaining a whole-cell recording, Ca^2+ channels were elicited by stepping to test potentials between −40 and +20 mV for 120 msec from the holding potential of −90 mV to determine if the amplitude of the current and clamp control were adequate for evaluation of drug effects. Ca^2+ channel currents were evoked by stepping from a holding potentials between −65 mV and −−55 mV to a test potential of +20 mV for 150 msec every 40 seconds. The amplitude of the Ca^2+ channel currents were compared before and during drug application and drug effects expressed as percent inhibition of the amplitude of control currents.

The test system of experiment [3] is K+ channels in superior cervical ganglion (SCG) neurons. As to the kind of experiment: Whole-cell voltage clamp, K+ current in SCG neurons. As to conditions: for IC50: read-out: Inhibition of K+ Current IC50. It is filed as cell-based, rat. The procedure:
as §1, §2, §3
(§4) For Na^+ and K^+ channel currents, following the determination of the I/V relationship for each cell in control solution, currents were evoked from a holding potential between −65 and −55 mV by stepping every 10 sec to a test potential of either 0 mV for Na^+ or +50 mV for K^+ current for a duration of 35 msec. Peak inward current was measured for Na^+ and sustained current for K^+ channel currents. […] Test compounds were applied until steady-state block was achieved. Data were expressed as percent inhibition of control amplitudes for Na^+ and K^+ channel currents.

The test system of experiment [4] is Na+ channels in superior cervical ganglion (SCG) neurons. As to the kind of experiment: Whole-cell voltage clamp, Na+ current in SCG neurons. The class given is cell-based, rat. As to conditions: for IC50: read-out: Inhibition of Na+ Current IC50. The procedure:
as §1, §2, §3, §4

T1 sequence (Q00975 whole entry): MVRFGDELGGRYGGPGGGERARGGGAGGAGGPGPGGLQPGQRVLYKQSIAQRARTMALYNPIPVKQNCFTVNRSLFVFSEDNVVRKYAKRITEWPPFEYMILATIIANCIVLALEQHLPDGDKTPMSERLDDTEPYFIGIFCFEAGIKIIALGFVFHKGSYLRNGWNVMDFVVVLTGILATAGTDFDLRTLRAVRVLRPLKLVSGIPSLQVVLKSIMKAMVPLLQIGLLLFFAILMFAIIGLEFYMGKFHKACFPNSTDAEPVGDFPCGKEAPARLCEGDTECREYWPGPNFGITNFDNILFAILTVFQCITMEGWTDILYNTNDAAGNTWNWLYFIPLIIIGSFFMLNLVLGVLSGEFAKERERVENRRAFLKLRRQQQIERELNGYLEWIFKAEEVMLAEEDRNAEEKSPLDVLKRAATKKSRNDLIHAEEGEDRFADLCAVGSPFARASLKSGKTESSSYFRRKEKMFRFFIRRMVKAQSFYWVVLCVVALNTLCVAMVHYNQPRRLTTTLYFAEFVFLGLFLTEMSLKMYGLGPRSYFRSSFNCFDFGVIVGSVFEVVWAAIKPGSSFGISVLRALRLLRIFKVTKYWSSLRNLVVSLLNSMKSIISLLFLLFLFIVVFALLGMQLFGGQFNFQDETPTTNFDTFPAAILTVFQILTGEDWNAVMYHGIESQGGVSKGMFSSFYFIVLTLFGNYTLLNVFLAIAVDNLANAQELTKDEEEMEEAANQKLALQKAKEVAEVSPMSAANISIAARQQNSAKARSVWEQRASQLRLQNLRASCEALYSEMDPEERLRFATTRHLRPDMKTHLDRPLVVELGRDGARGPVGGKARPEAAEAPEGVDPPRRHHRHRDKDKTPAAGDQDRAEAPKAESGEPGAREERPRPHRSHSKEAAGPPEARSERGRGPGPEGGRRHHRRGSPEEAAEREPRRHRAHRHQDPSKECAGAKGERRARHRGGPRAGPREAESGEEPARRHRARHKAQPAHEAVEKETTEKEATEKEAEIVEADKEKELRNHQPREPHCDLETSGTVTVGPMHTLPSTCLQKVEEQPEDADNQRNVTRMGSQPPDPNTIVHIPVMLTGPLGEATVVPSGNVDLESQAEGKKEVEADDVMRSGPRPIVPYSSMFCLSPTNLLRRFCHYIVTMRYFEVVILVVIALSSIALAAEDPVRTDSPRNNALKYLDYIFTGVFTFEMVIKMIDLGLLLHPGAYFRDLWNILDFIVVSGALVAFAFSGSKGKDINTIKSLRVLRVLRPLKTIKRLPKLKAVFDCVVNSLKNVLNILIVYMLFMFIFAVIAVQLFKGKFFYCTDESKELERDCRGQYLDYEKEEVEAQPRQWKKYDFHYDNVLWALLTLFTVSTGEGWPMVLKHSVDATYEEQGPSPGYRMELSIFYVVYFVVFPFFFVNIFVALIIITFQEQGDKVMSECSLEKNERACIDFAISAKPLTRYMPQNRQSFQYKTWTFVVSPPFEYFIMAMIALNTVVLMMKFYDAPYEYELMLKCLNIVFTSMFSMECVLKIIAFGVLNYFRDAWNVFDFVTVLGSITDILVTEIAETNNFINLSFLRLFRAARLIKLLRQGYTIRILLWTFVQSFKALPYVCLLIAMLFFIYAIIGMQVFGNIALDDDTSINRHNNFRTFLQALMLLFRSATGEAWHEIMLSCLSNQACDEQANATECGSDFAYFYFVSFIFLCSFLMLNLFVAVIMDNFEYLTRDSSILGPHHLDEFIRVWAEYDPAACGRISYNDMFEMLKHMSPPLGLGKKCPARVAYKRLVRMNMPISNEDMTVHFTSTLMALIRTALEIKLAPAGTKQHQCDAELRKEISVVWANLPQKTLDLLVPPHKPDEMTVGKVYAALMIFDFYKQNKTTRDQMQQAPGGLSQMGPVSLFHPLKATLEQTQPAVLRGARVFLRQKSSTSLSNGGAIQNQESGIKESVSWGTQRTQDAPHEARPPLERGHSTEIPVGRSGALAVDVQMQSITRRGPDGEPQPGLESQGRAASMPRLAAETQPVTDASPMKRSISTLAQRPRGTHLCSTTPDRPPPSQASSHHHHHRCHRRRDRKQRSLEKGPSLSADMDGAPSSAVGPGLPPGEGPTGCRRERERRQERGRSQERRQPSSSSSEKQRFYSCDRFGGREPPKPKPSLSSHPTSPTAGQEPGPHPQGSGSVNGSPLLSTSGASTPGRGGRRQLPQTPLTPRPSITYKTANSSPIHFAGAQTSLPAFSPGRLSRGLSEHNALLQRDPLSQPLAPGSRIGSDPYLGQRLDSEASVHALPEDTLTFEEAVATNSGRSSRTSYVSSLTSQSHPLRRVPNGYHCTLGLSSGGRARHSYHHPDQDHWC
T1 sequence (P54289 25-956 partner limits assumed): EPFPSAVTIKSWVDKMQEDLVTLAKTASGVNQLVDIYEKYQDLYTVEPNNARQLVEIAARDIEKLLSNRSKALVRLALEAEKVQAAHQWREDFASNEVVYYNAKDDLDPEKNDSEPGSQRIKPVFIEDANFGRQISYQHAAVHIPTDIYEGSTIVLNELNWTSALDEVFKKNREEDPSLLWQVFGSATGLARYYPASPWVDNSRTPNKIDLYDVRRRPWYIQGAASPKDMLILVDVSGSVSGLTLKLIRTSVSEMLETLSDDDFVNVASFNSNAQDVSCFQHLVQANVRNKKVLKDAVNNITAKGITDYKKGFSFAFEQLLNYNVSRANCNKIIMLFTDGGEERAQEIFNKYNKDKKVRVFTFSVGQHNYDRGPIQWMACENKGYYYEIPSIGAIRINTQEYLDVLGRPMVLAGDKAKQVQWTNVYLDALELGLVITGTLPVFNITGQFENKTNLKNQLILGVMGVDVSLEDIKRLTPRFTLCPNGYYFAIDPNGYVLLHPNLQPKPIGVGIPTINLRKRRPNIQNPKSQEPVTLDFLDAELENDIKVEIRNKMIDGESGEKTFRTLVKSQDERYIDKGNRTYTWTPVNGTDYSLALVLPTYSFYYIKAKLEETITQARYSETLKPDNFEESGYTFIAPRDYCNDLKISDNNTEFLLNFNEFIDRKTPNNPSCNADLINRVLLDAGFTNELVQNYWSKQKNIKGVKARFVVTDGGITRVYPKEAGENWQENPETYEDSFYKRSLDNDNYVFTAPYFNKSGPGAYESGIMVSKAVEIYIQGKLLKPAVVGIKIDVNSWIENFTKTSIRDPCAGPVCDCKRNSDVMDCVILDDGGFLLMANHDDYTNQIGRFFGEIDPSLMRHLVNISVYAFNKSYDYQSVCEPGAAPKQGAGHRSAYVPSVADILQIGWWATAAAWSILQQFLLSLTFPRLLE
T1 sequence (P54289 957-1103 partner limits assumed): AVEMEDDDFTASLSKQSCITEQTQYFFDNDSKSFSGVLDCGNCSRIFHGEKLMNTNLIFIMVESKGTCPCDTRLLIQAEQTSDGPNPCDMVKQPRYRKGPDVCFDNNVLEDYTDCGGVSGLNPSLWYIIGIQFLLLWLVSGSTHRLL
T1 sequence (P54284 whole entry partner): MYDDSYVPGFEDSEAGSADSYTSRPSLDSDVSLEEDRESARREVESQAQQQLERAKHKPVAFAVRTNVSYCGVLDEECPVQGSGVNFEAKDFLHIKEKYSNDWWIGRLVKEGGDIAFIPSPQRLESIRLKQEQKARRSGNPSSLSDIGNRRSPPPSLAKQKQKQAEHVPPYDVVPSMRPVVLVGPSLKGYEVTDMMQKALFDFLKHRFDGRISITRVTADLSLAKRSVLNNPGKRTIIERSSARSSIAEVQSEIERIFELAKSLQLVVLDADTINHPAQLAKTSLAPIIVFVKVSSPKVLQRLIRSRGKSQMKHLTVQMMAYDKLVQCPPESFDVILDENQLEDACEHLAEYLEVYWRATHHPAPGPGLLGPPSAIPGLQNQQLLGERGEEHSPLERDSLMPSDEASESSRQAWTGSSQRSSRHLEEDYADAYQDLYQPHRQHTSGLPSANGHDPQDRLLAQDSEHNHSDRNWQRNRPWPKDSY

The inhibition is the change of the read-out against control, counted positive when it falls. The term IC50 denotes the concentration that gives 50% inhibition. For the molecule `CC(C)C[C@@H](NC(=O)N1CCCCCC1)C(=O)N[C@@H](Cc1ccc(OCc2ccccc2)cc1)C(=O)OC(C)(C)C` [Example 3, 2(S)-{2(R)-[(Azepane-1-carbonyl)-amino]-4-methyl-pentanoylamino}-3-(4-benzyloxy-phenyl)-propionic acid tert-butyl ester], in experiment [1], the inhibition at 1 µM turned out to be 53%, the inhibition at 10 µM is 90% and the IC50 was determined as 990 nM. Also, 10 µM produced 69% inhibition in experiment [2]. In addition, the “Inhibition of K+ Current, % Inhibition at 10 μM” value in experiment [3] is reported as 39%. Moreover, in experiment [4], the “Inhibition of Na+ Current, % Inhibition at 10 μM” value was determined as 12%.
As to `CC(C)C[C@@H](NC(=O)N1CCCCCC1)C(=O)N[C@H](Cc1ccc(OCc2ccccc2)cc1)C(=O)OC(C)(C)C` [Example 4, [R-(R*,R*)]-2-{2-(Azepane-1-carbonyl)-amino]-4-methyl-pentanoylamino}-3-(4-benzyloxy-phenyl)-propionic acid tert-butyl ester], in experiment [1], the inhibition at 1 µM is 51%, the inhibition at 10 µM worked out at 90% and the IC50 is 900 nM. In addition, the inhibition at 10 µM in experiment [2] turned out to be 51%. In addition, the “Inhibition of K+ Current, % Inhibition at 10 μM” value in experiment [3] came out at 38%. Also, the “Inhibition of Na+ Current, % Inhibition at 10 μM” value in experiment [4] was found to be 13%.
On to `CC(C)CC(NC(=O)N1CCCCCC1)C(=O)NC(C)(Cc1ccc(OCc2ccccc2)cc1)C(=O)OC(C)(C)C` (stereo not drawn) [Example 11A, [S-(R*,R*)]-2-{2-[(Azepane-1-carbonyl)-amino]-4-methyl-pentanoylamino}-3-(4-benzyloxy-phenyl)-2-methyl-propionic acid tert-butyl ester], for which, in experiment [1], the inhibition at 1 µM was determined as 61%, the inhibition at 10 µM amounted to 88% and the IC50 was found to be 530 nM. In experiment [2], this molecule had an inhibition at 10 µM of 47%. Also, the “Inhibition of K+ Current, % Inhibition at 10 μM” value in experiment [3] was 47%. The “Inhibition of Na+ Current, % Inhibition at 10 μM” value in experiment [4] came to 11%.
With `CC(C)C[C@H](NC(=O)N1CCCCCC1)C(=O)N[C@@H](Cc1ccc(OCc2cccc(NC(=O)OC(C)(C)C)c2)cc1)C(=O)OC(C)(C)C` [Example 28, [S-(R*,R*)]-2-{2-[(Azepane-1-carbonyl)-amino]-4-methyl-pentanoylamino}-3-[4-(3-tert-butoxycarbonylamino-benzyloxy)-phenyl]-propionic acid tert-butyl ester], in experiment [1], the inhibition at 1 µM was found to be 42%, the inhibition at 10 µM worked out at 65% and the IC50 worked out at 1800 nM. At 10 µM the inhibition in experiment [2] was 40%. The “Inhibition of K+ Current, % Inhibition at 10 μM” value in experiment [3] was 11%. Also, the “Inhibition of Na+ Current, % Inhibition at 10 μM” value in experiment [4] stood at 5%.
For `CC(C)C[C@H](NC(=O)N1CCCCCC1)C(=O)N[C@@H](Cc1ccc(OCC2CCCCC2)cc1)C(=O)OC(C)(C)C` [Example 30, [S-(R*,R*)]-2-{2-[(Azepane-1-carbonyl)-amino]-4-methyl-pentanoylamino}-3-(4-cyclohexylmethoxy-phenyl)-propionic acid tert-butyl ester], in experiment [1], the inhibition at 1 µM turned out to be 56%, the inhibition at 10 µM was found to be 83% and the IC50 worked out at 630 nM. In experiment [2], the inhibition at 10 µM is 38%. Moreover, in experiment [3], the “Inhibition of K+ Current, % Inhibition at 10 μM” value stood at 8%. In addition, the “Inhibition of Na+ Current, % Inhibition at 10 μM” value in experiment [4] came to 19%.
Take `CC(C)C[C@H](NC(=O)N1CCCCCC1)C(=O)N[C@@H](Cc1ccc(OCc2cccnc2)cc1)C(=O)OC(C)(C)C` [Example 31, [S-(R*,R*)]-2-{2-[(Azepane-1-carbonyl)-amino]-4-methyl-pentanoylamino}-3-[4-(pyridin-3-ylmethoxy)-phenyl]-propionic acid tert-butyl ester]: in experiment [1], the inhibition at 1 µM was determined as 28%, the inhibition at 10 µM turned out to be 85% and the IC50 was 1850 nM. Also, in experiment [2], the inhibition at 10 µM was found to be 68% and the IC50 worked out at 3340 nM. For the same molecule, in experiment [3], the “Inhibition of K+ Current, % Inhibition at 10 μM” value came to 41% and the IC50 is 12400 nM. Further, in experiment [4], the “Inhibition of Na+ Current, % Inhibition at 10 μM” value is 21% and the IC50 worked out at 185000 nM.
In the case of `CC(C)(C)C[C@H](NC(=O)N1CCCCCC1)C(=O)N[C@@H](Cc1ccc(OCc2ccccc2)cc1)C(=O)NCCN1CCCCC1` [Example 159, [S-(R*,R*)]-Azepane-1-carboxylic acid {1-[2-(4-benzyloxy-phenyl)-1-(2-piperidin-1-ylethylcarbamoyl)-ethylcarbamoyl]-3,3-dimethyl-butyl}-amide], in experiment [1], the IC50 is 830 nM. This molecule also came in with an inhibition at 10 µM in experiment [2] of 28%. In experiment [3], the “Inhibition of K+ Current, % Inhibition at 10 μM” value came to 46%. Further, the “Inhibition of Na+ Current, % Inhibition at 10 μM” value in experiment [4] was determined as 30%.
Turning to `O=C(NCCN1CCCCC1)[C@H](Cc1ccc(OCc2ccccc2)cc1)NC(=O)[C@H](CC1CCCCC1)NC(=O)N1CCCCCC1` [Example 162, [S-(R*,R*)]-Azepane-1-carboxylic acid {1-[2-(4-benzyloxy-phenyl)-1-(2-piperidin-1-ylethylcarbamoyl)-ethylcarbamoyl]-2-cyclohexyl-ethyl}-amide], the IC50 in experiment [1] stood at 960 nM. Moreover, in experiment [2], at 10 µM the inhibition was 47%. Moreover, the “Inhibition of K+ Current, % Inhibition at 10 μM” value in experiment [3] is reported as 40%. The “Inhibition of Na+ Current, % Inhibition at 10 μM” value in experiment [4] was 32%.
Consider `CC(C)C[C@H](NC(=O)N1CCCCCC1)C(=O)N[C@@H](Cc1ccc(OCc2ccccc2)cc1)C(=O)NCCO` [Example 165, [S-(R*,R*)]-Azepane-1-carboxylic acid {1-[2-(4-benzyloxy-phenyl)-1-(2-hydroxy-ethylcarbamoyl)-ethylcarbamoyl]-3-methyl-butyl}-amide], for which the IC50 in experiment [1] amounted to 3600 nM. For the same molecule, in experiment [2], at 10 µM the inhibition was 84% and the IC50 is 2330 nM. In addition, in experiment [3], the “Inhibition of K+ Current, % Inhibition at 10 μM” value is listed as 86%. Besides, in experiment [4], the “Inhibition of Na+ Current, % Inhibition at 10 μM” value is reported as 46% and the IC50 came out at 6900 nM.
As for `CC(C)C[C@H](NC(=O)N1CCCCCC1)C(=O)N[C@@H](Cc1ccc(OCc2ccccc2)cc1)C(=O)N1CCCCC1` [Example 167, [S-(R*,R*)]-Azepane-1-carboxylic acid {1-[1-(4-benzyloxy-benzyl)-2-oxo-2-piperidin-1-ylethylcarbamoyl]-3-methyl-butyl}-amide], in experiment [1], the inhibition at 1 µM worked out at 58% and the IC50 is 530 nM. In experiment [2], this molecule returned an inhibition at 10 µM of 4%. Besides, the “Inhibition of K+ Current, % Inhibition at 10 μM” value in experiment [3] was found to be 8%. Moreover, the “Inhibition of Na+ Current, % Inhibition at 10 μM” value in experiment [4] was −2%.
For `CC(C)C[C@H](NC(=O)N1CCOCC1)C(=O)N[C@@H](Cc1ccc(OCc2ccccc2)cc1)C(=O)NCCN1CCCCC1` [Example 177, [S-(R*,R*)]-Morpholine-4-carboxylic acid {1-[2-(4-benzyloxy-phenyl)-1-(2-piperidin-1-ylethylcarbamoyl)-ethylcarbamoyl]-3-methyl-butyl}-amide], the IC50 in experiment [1] turned out to be 2900 nM. Besides, in experiment [2], 10 µM produced 87% inhibition and the IC50 was determined as 2030 nM. Further, the “Inhibition of K+ Current, % Inhibition at 10 μM” value in experiment [3] stood at 68%. Also, the “Inhibition of Na+ Current, % Inhibition at 10 μM” value in experiment [4] was found to be 31%.
As for `CC(C)C[C@H](NC(=O)N1CCCCCC1)C(=O)N[C@@H](Cc1ccc(OCc2ccccc2)cc1)C(=O)NCCCNC1CCCCC1` [Example 184, [S-(R*,R*)]-Azepane-1-carboxylic acid {1-[2-(4-benzyloxy-phenyl)-1-(3-cyclohexylamino-propylcarbamoyl)-ethylcarbamoyl]-3-methyl-butyl}-amide], in experiment [1], the IC50 was 2600 nM. Moreover, in experiment [2], the inhibition at 10 µM was found to be 54% and the IC50 came to 1190 nM. Besides, in experiment [3], the “Inhibition of K+ Current, % Inhibition at 10 μM” value came to 89% and the IC50 was 490 nM. Besides, in experiment [4], the “Inhibition of Na+ Current, % Inhibition at 10 μM” value was 82% and the IC50 worked out at 4850 nM.
